Test results published in patent US5739131A, “Benzene derivatives and pharmaceutical composition” (Kureha Chemical Industry Co., Ltd., priority 1994, dated 1998).
Values belong to the molecule of their own block, whether it stands above or below them.

Experiments:
[1] = tested on: kidney disease model rats; test: Renal function indicatory value (action to kidney diseases); type: in vivo, Sprague-Dawley female rats; conditions: 20 mg/kg/day per os, two weeks; for Creatinine clearance: 24 hours urine, control 0.20; for Creatinine / Urea nitrogen: serum; for Creatinine: control 2.0; for Urea nitrogen: control 100
Protocol: The kidney disease model rats were prepared as in Example 115. Twenty-five groups (8 rats per group) were sleeked in a manner so that there were no major differences between each group in the serum creatinine value and the urea nitrogen value indicating renal function. The rats in each group were allowed to freely take up feed and water. […] To the rats in the control group, only water was forcedly administered per os every day. After two weeks, 0.2 ml of blood was collected from the carotid artery of the rat under anesthesia, and centrifuged to obtain serum. Using 25 μl of the serum, serum creatinine (Scr) was measured by a creatinine analytical instrument (Beckman). Using 10 μl of the serum, urea nitrogen (BUN) was measured by a BUN analytical instrument (Beckman). Creatinine clearance was evaluated as follows:
After serum creatinine measurement, rats were placed in urinary metabolic cages for 24 hours to collect urine. Urinary creatine concentration (Ucr) was measured by a creatinine analytical instrument, and total volume of urination (Uvol) was also measured. Creatinine clearance (CCr) was calculated by the following formula: [formula]

mice = test: Acute toxicity, single oral dose; type: in vivo
Protocol: Five-week-old ICR female mice (5 mice per group) were bred for acclimation for a week. Then, the compounds of the present invention were dissolved or dispersed in an aqueous solution of 0.5% methylcellulose, and orally administered to the mice in a single dosage (500 mg/kg).

[2] = target: T1, angiotensin II receptor subtype 1 (AT1) (Oryctolagus cuniculus, UniProt P34976); test: Binding assay, angiotensin II receptor subtype 1 (AT1); design: species or system rabbit (adrenal glands); conditions: for inhibition at 100 µM: AT1, rabbit adrenal glands; for IC50: tracer 3H angiotensin II, room temperature 3 hours, read-out: IC50 AT1
T1 construct: receptor: from adrenal glands in rabbits; from tissue; host or cells: rabbit adrenal glands
T1 sequence (P34976 1-359): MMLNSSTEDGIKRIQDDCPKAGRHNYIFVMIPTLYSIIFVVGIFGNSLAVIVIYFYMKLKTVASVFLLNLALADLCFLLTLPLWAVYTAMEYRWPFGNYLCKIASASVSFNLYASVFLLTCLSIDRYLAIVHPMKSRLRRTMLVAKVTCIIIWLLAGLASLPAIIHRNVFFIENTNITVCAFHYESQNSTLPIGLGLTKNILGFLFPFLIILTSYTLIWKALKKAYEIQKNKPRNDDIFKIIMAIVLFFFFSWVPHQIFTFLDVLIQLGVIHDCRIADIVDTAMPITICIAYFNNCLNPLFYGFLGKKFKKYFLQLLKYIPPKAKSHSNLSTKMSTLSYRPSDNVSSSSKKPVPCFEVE
Protocol: (§1) In this Example, the affinity to the angiotensin II receptor subtype 1 or subtype 2 was evaluated by a binding assay in accordance with the method described in Biochem. Pharmacol., 33, 4057-4062 (1984).
(§2) Specifically, the measurement of the total binding in the presence of each drug was performed as follows:
(§3) A mixture (final volume=0.25 ml) of a drug in a given concentration (the drug was dissolved in DMSO, and diluted to a double volume with a buffer attached to a drug discovery system to prepare sample for the assay; 0.025 ml), a tracer (0.025 ml), and receptors (0.2 ml) was incubated [in the case of the angiotensin II receptor subtype 1 (AT1), at room temperature for 3 hours, and in the case of the subtype 2 (AT2), at 37° C. for 1 hour]. Then, the reaction mixture was filtered with suction (GF/C filter was used in AT1, and GF/B filter was used in AT2). The filter papers after filtration with suction (the tracer bound to the receptors) were counted by a γ-well counter (ARC-500, Aloka). The non-specific bindings were measured by repeating the above method, except that a large excess amount of a displacer was added. The specific binding of the drug in the given concentration was calculated by subtracting the non-specific binding from the total binding, respectively.
(§4) In AT1 and AT2, the percentages to inhibit the bindings of radioactive ligands (tracer) to receptors by the drugs to be tested (IC50 value of concentration to show 50% inhibition, or binding inhibition % in 100 μM) were measured, using the drugs to be tested and control drugs in the given concentration.

[3] = tested on: kidney disease model rats; test: Action to depress blood pressure (tail cuff method); type: in vivo, Sprague-Dawley female rats; conditions: systolic, average, 20 mg/kg per os, two days from administration; control (water) 203
Protocol: The compounds of the present invention and the reference substance were forcedly administered per os to kidney disease model rats, and the action to depress blood pressure was observed. The kidney disease model rats were prepared by ligature of branches of renal artery in accordance with the conventional method, that is, the left hilum renalis of Sprague-Dawley female rats was exposed under anesthesia, and one of four secondary branches of renal artery was left unligated, while the remaining three branches were ligated, respectively. After a week, the hilum renalis (artery, vein, and ureter) of the right kidney were further ligated to thereby prepare the rats whose renal function was lowered to approximately 1/8 of the normal function. Each group consisted of eight rats. The drugs to be tested (20 mg/kg) were administered to each administering group, and only water was administered to control group. After two days from the administration, the systolic blood pressure was measured by the tail cuff method using a blood pressure measuring apparatus (UR5000; Ueda).

[4] = target: T2, angiotensin II receptor subtype 2 (AT2) (Bos taurus, UniProt G5E6F7); test: Binding assay, angiotensin II receptor subtype 2 (AT2); design: species or system bovine (cerebellar cortex); conditions: 100 μM, AT2, bovine cerebellar cortex, 37° C. 1 hour; read-out: Binding inhibition % in 100 μm, AT2
T2 construct: receptor: from cerebellar cortex in bovine; from tissue; host or cells: bovine cerebellar cortex
T2 sequence (G5E6F7 1-362): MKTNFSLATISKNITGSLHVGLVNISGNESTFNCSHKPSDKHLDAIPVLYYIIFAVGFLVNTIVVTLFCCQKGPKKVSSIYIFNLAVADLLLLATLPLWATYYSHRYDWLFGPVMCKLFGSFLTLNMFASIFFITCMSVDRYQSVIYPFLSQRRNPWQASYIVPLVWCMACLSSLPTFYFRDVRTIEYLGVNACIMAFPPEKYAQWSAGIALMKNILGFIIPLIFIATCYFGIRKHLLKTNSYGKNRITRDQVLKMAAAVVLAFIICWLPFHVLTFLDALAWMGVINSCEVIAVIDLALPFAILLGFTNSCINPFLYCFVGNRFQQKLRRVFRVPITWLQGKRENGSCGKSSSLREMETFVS
Protocol: as §1, §2, §3, §4
receptor: from cerebellar cortex in bovine
tracer: ^125 ITyr^4angiotensin II
control drug: angiotensin II (human)
(displacer): angiotensin II (human)

[5] = tested on: kidney disease model rats; test: Action to survival time of kidney diseased animals; type: in vivo, Sprague-Dawley female rats; conditions: 20 mg/kg/day per os, observation eight weeks (upper limit); control 5.0
Protocol: The kidney disease model rats were prepared as in Example 115. Twenty-five groups (8 rats per group) were prepared in a manner so that there was no major difference between the groups in the serum creatinine value and the urea nitrogen value indicating renal function. The rats in each group were allowed to freely take up feed and water. […] To the rats in the control group, only water was forcedly administered per os every day. If kidney diseases are aggravated, the rat will die of uremia. Thus, the survival time was observed as comprehensive indication of the improvement effect on the kidney diseases. The observation period was eight weeks. Thus if all rats survived, the average survival time is eight weeks and it is an upper limit.

[6] = mice, single oral 500 mg/kg, observed for 6 days, 5 per group

SMILES: CCCCC(=O)Nc1ccc(C(=O)N2CCOCC2)cc1NCc1ccc(C(=O)O)cc1 [Compound No. 1, 3-[(4-carboxyphenyl)methylamino]4-valeramidobenzoic acid morpholide]
- Creatinine clearance [1]: 0.34 mL/min
- Creatinine [1]: 1.6 mg/dL
- Urea nitrogen [1]: 75 mg/dL
- Number of deaths/number of survivals (mice; [6]): 0/5
- inhibition at 100 µM [2]: 33%
- Blood pressure [3]: 196 mmHg
- inhibition at 100 µM [4]: 0%
- Average survival time [5]: 7.1 weeks

SMILES: CCCCCN(C)c1c(NCc2ccc(-c3ccccc3-c3nn[nH]n3)cc2)cc(S(=O)(=O)N2CCOCC2)cc1NC(=O)CCc1ccccc1 [Compound No. 599, 4-[[4-(N-n-amyl-N-methyl)amino-3-[[2'-(1H-tetrazol-5-yl)biphenyl-4-yl]methyl]amino-5-(3-phenylpropionamido)benzene]sulfonyl]morpholine]
- Creatinine clearance [1]: 0.35 mL/min
- Creatinine [1]: 1.5 mg/dL
- Urea nitrogen [1]: 73 mg/dL
- Number of deaths/number of survivals (mice; mouse, in vivo, po, 500 mg/kg): 0/5
- inhibition at 100 µM [2]: 38%
- Blood pressure [3]: 200 mmHg
- inhibition at 100 µM [4]: 0%
- Average survival time [5]: 7.0 weeks

SMILES: CCCCC(=O)N(Cc1ccc(-c2ccccc2-c2nn[nH]n2)cc1)c1cc(C(=O)N2CCOCC2)ccc1N(C)C [Compound No. 591, 4-dimethylamino-3-N-[2'-[(1H-tetrazol-5-yl)biphenyl-4-yl]methyl]valeramidobenzoic acid morpholide]
- Creatinine [1]: 1.6 mg/dL
- Urea nitrogen [1]: 76 mg/dL
- Number of deaths/number of survivals (mice; mouse, in vivo, po, 500 mg/kg): 0/5
- inhibition at 100 µM [2]: 35%
- Blood pressure [3]: 199 mmHg
- inhibition at 100 µM [4]: 0%
- Average survival time [5]: 7.3 weeks

SMILES: CCCCC(=O)Nc1ccc(C(=O)N2CCOCC2)cc1NCc1ccc(-c2ccccc2-c2nnn[nH]2)cc1 [Compound No. 585, 3-[[2'-(1H-tetrazol-5-yl)biphenyl-4-yl]methylamino]-4-valeramidobenzoic acid morpholide]
- Creatinine clearance [1]: 0.35 mL/min
- Creatinine [1]: 1.6 mg/dL
- Urea nitrogen [1]: 72 mg/dL
- Number of deaths/number of survivals (mice; [6]): 0/5
- IC50 [2]: 1.7 µM
- Blood pressure [3]: 196 mmHg
- inhibition at 100 µM [4]: 0%
- Average survival time [5]: 7.3 weeks

SMILES: CCCCC(=O)N(Cc1ccc(-c2nn[nH]n2)cc1)c1cc(C(=O)N2CCOCC2)ccc1N(C)C [Compound No. 604, 4-dimethylamino-3-N-[[4-(1H-tetrazol-5-yl)phenylmethyl]valeramido]benzoic acid morpholide]
- Creatinine clearance [1]: 0.28 mL/min
- Creatinine [1]: 1.8 mg/dL
- Urea nitrogen [1]: 75 mg/dL
- Number of deaths/number of survivals (mice; mouse, in vivo, po, 500 mg/kg): 0/5
- inhibition at 100 µM [2]: 15%
- Blood pressure [3]: 200 mmHg
- inhibition at 100 µM [4]: 0%
- Average survival time [5]: 7.0 weeks

SMILES: CCCCCN(C)c1ccc(C(=O)N2CCOCC2)cc1NCc1ccc(C(=O)O)cc1 [Compound No. 41, 4-(N-n-amyl-N-methyl)amino-3-[(4-carboxyphenyl)methyl]aminobenzoic acid morpholide]
- Creatinine clearance [1]: 0.36 mL/min
- Creatinine [1]: 1.6 mg/dL
- Urea nitrogen [1]: 72 mg/dL
- Number of deaths/number of survivals (mice; mouse, in vivo, po, 500 mg/kg): 0/5
- inhibition at 100 µM [2]: 26%
- Blood pressure [3]: 195 mmHg
- inhibition at 100 µM [4]: 0%
- Average survival time [5]: 7.6 weeks

SMILES: CCCCCN(C)c1c(NCc2ccc(-c3ccccc3-c3nn[nH]n3)cc2)cc(C(=O)N2CCOCC2)cc1NC(=O)C(c1ccccc1)c1ccccc1 [Compound No. 593, 4-(N-n-amyl-N-methyl)amino-5-(diphenylacetamido)-3-[[2'-(1H-tetrazol-5-yl)biphenyl-4-yl]methylamino]benzoic acid morpholide]
- Creatinine clearance [1]: 0.31 mL/min
- Creatinine [1]: 1.6 mg/dL
- Urea nitrogen [1]: 80 mg/dL
- Number of deaths/number of survivals (mice; mouse, in vivo, po, 500 mg/kg): 0/5
- inhibition at 100 µM [2]: 36%
- Blood pressure [3]: 200 mmHg
- inhibition at 100 µM [4]: 0%
- Average survival time [5]: 7.1 weeks

SMILES: CCCCC(=O)N(Cc1ccc(-c2ccccc2-c2nn[nH]n2)cc1)c1cc(C(=O)N2CCOCC2)ccc1NC(C)=O [Compound No. 592, 4-acetamido-3-N-[[[2'-(1H-tetrazol-5-yl)biphenyl-4-yl]methyl]valeramido]benzoic acid morpholide]
- Creatinine clearance [1]: 0.33 mL/min
- Creatinine [1]: 1.7 mg/dL
- Urea nitrogen [1]: 76 mg/dL
- Number of deaths/number of survivals (mice; mouse, in vivo, po, 500 mg/kg): 0/5
- IC50 [2]: 4.9 µM
- Blood pressure [3]: 202 mmHg
- inhibition at 100 µM [4]: 0%
- Average survival time [5]: 7.0 weeks

- inhibition at 100 µM [2]: 0%
- inhibition at 100 µM [4]: 0%
SMILES: CCCCC(=O)N(Cc1ccc(C(=O)O)cc1)c1cc(S(=O)(=O)N2CCOCC2)ccc1N(C)C [Compound No. 597, 4-[[3-N-[(4-carboxyphenyl)methyl]valeramido-4-dimethylaminobenzene]sulfonyl]morpholine]

- inhibition at 100 µM [2]: 15%
- inhibition at 100 µM [4]: 0%
SMILES: CCCCCCc1ccc(C(=O)N2CCOCC2)cc1NCc1ccc(C(=O)O)cc1 [Compound No. 75, 3-[(4-carboxyphenyl)methyl]amino-4-hexylbenzoic acid morpholide]
